Measured values as given in patent US20250075180A1, “METHOD FOR EXPANSION CULTURE OF GAMMA-DELTA T CELL” (IMMUNOMAX CO., LTD., priority 2022, published 2025).

Experiments:
γδ T cells [1] = experiment: γδ T cell proliferation rate and viability in PBMC culture depending on finasteride concentration (Example 1); type: cell-based, human; conditions: for γδ T cell proliferation rate increase compared to control (IL-2 and ZA): PBMC from donor, 14-day culture; for proliferation rate of γδ T cells compared to control (in words): 14 days
Experimental: For 100 cc of blood from a healthy donor collected by a medical professional and placed in a heparin tube, 25 ml of 1×DPBS and 25 ml of the blood were placed in four 50 ml conical tubes. 15 ml of Lymphoprep (Axis Shield, UK) was vertically dispensed into a new 50 ml conical tube carefully to avoid contacting the wall as much as possible, and the diluted blood was slowly added to the top of the 50 ml conical tube containing the Lymphoprep solution along the wall. The conical tube was placed in a centrifuge and centrifuged at 800×g (1,890 rpm) for 20 minutes at room temperature. In the separated four blood layers, the white buffy coat layer between Lymphoprep and plasma layers was collected, transferred to new 50 ml conical tubes (three or four), and centrifuged at 1,500 rpm (500×g) for 10 minutes at room temperature. The cells divided into three or four 50 ml conical tubes were resuspended in 45 ml of 1×DPBS and then collected into one 50 ml conical tube. The cells collected in one tube were centrifuged a total of two times at 1,250 rpm (350×g) for 10 minutes at room temperature. A culture medium was added to a stock of 1.0×10^7 cells to a final volume of 10 ml so that the cell concentration was 1.0×10^6 cells/ml, followed by pipetting two or three times, after which 1.0 ml of the cells was dispensed as day 0 samples to proceed with culture, and the remaining cells were dispensed at 1.0×10^7 cells into frozen vials, stored frozen in a nitrogen tank (LN2 tank), and used by thawing as necessary. The peripheral blood mononuclear cells (PBMC) isolated in 1-1 were continuously treated with 3 μM zoledronic acid and 10^3 IU/ml IL-2 as basic culture components for γδ T cells and with 0.01 nM and 10 nM finasteride as an active ingredient, followed by culture for a total of 14 days, and the activation and proliferation rates of γδ T cells were compared. The frozen peripheral blood mononuclear cells were thawed in a constant temperature water bath at 37° C. and then suspended in 9 ml of OpTmizer medium (Thermo-Fisher Scientific, USA) containing 10% heat inactivated fetal bovine serum (FBS, Gibco, USA). The number of cells was measured, followed by centrifugation at 400×g and 25° C. for 4 minutes. The cell pellets obtained by centrifugation were suspended in 5 ml of complete OpTmizer medium (10% fetal bovine serum+OpTmizer medium, cOpTmizer) and the number of cells was measured, after which the cells were diluted with cOpTmizer medium to a concentration of 1.0×10^6 cells/ml. […] After 2 days of re-induction, the aggregated cells were resuspended using a 1000P micropipette and the number of cells was measured. […] 7 days after the start of culture, the aggregated cells were resuspended using a 1000P micropipette or a 10 ml serological pipette and the number of cells was measured. […]

γδ T cells [2] = experiment: γδ T cell proliferation rate and viability in PBMC culture depending on finasteride treatment period (Example 4); type: cell-based, human
Experimental: Peripheral blood mononuclear cells (PBMC) were isolated from healthy donors and were cultured for a total of 14 days by continuous treatment with 10 nM finasteride as the active ingredient for each period until day 7, day 10, and day 14 from the start date of culture, in addition to the basic culture components for γδ T cells (3 μM zoledronic acid and 10^3 IU/ml IL-2), and the activation and proliferation rates of γδ T cells were compared. The frozen peripheral blood mononuclear cells were thawed in a constant temperature water bath at 37° C. and then suspended in 9 ml of OpTmizer medium (cOpTmizer, Thermo-Fisher Scientific, USA) containing 10% fetal bovine serum (FBS). The number of cells was measured, followed by centrifugation at 400×g and 25° C. for 4 minutes. The cell pellets obtained by centrifugation were suspended in 5 ml of cOpTmizer medium (Thermo-Fisher Scientific, USA) and the number of cells was measured, after which the cells were diluted with cOpTmizer medium to a concentration of 1.0×10^6 cells/ml. A total of 1.0×10^6 cells was dispensed at 1 ml per well in a 24-well plate. To stimulate and induce differentiation of γδ T cells, 10 nM finasteride, 3 μM zoledronic acid (ZA), and 100 μl of IL-2 (10^3 IU/ml) were added, followed by culture in a CO2 incubator at 37° C. for 4 days. 4 days after the start of culture, the aggregated cells were resuspended using a 1000P micropipette, and the same amount of cOpTmizer culture medium based on the cell culture fluid in culture and 10 nM finasteride and IL-2 (10^3 IU/ml) for re-induction were further added, followed by culture in a CO2 incubator at 37° C. 5 days after the start of culture, the aggregated cells were resuspended using a 1000P micropipette and the number of cells was measured. 10 nM finasteride and IL-2 (10^3 IU/ml) were further added to the same amount of cOpTmizer culture medium based on the cell culture fluid in culture, followed by culture in a CO2 incubator at 37° C. The next day, 10 nM finasteride and IL-2 (10^3 IU/ml) were further added to half of the cOpTmizer culture medium based on the cell culture fluid in culture, followed by culture in a CO2 incubator at 37° C. 7 days after the start of culture, the aggregated cells were resuspended using a 1000P micropipette or a 10 ml serological pipette and the number of cells was measured. The cells were diluted with cOpTmizer culture medium to a concentration of 0.4×10^6 cells/ml based on the cells in culture, after which 10 nM finasteride and IL-2 (10^3 IU/ml) were added to the additional cOpTmizer culture medium, followed by culture in a CO2 incubator at 37° C. for 3 days. 10 days after the start of culture, the aggregated cells were resuspended using a 1000P micropipette or a 10 ml serological pipette and the number of cells was measured. The cells were diluted with cOpTmizer culture medium to a concentration of 0.4×10^6 cells/ml based on the cells in culture, after which 10 nM finasteride and IL-2 (10^3 IU/ml) were added to the additional cOpTmizer culture medium, followed by culture in a CO2 incubator at 37° C. On day 12 after the start of the culture, the same amount of cOpTmizer culture medium based on the cell culture fluid in culture, 10 nM finasteride, and IL-2 (10^3 IU/ml) were added, followed by culture in a CO2 incubator at 37° C. 14 days after the start of culture, the aggregated cells were resuspended using a 1000P micropipette or a 10 ml serological pipette and the number of cells was measured. […]

[3] = 10 nM finasteride continuously until day 7, 14-day culture, FIG. 9

CC(C)(C)NC(=O)[C@H]1CC[C@H]2[C@@H]3CC[C@H]4NC(=O)C=C[C@]4(C)[C@H]3CC[C@]12C [Finasteride]
γδ T cell proliferation rate increase compared to control (IL-2 and ZA) (γδ T cells [1]; 0.01 nM finasteride): 1.15 times increase
γδ T cell proliferation rate increase compared to control (IL-2 and ZA) (γδ T cells [1]; 10 nM finasteride): 1.35 times increase
proliferation rate of γδ T cells compared to control (in words) (γδ T cells [1]; female donors, low concentration of finasteride (0.01 nM), FIG. 2): increased
proliferation rate of γδ T cells compared to control (in words) (γδ T cells [1]; male donors, high concentration of finasteride (10 nM), FIG. 1): increased
γδ T cell proliferation rate increase compared to control group (γδ T cells [2]; [3]): about 1.5 times
γδ T cell proliferation rate increase compared to group treated continuously until day 10 or 14 (γδ T cells [2]; [3]): at least 1.1 times
cell viability compared to control group (γδ T cells [2]; continuous treatment with high concentration (10 nM) of finasteride): no significant difference
proportion of γδ T cells (γδ T cells [2]; cultured for 7 days): about 70%
proportion of γδ T cells (γδ T cells [2]; cultured for 10 days): ≥ 90%
